Assay results from the supplement of paper PMC10011410.

Tests used:
U-2 OS [1] = experiment: cell painting activity score (Mahalanobis distance from DMSO wells); higher = stronger morphological phenotype; details: 24 h
Procedure: (§1)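 Cell painting in U-2 OS cells (384-well, about 1,500 cells per well), compound exposure 24 h, usually six 2-fold concentrations from 20 to 0.625 uM (some compounds higher or lower). Relative cell count is the cell number per well relative to DMSO wells. Activity score is the Mahalanobis distance of the morphological profile from DMSO control wells. Mean of four technical replicate plates.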

U-2 OS [2] = experiment: AUC of culture confluence over time (live-cell imaging) (AUC (confluence % x time)); higher = more confluent culture (less growth inhibition)
Procedure: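 Live-cell Incucyte imaging of U-2 OS cells in F-12K medium. Compounds were tested mostly at 5, 10 and 20 uM, and cells were imaged every 4 h for up to 60 h. Value is the area under the curve of phase-contrast confluence over time.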

U-2 OS [3] = experiment: relative cell count vs DMSO (cell painting) (fraction of DMSO control); higher = more cells remaining (less cytotoxic); details: 24 h
Procedure: as §1

Structure (SMILES)	cell painting activity score (U-2 OS [1]; 0.625 µM)	cell painting activity score (U-2 OS [1]; 1.25 µM)	cell painting activity score (U-2 OS [1]; 2.5 µM)	cell painting activity score (U-2 OS [1]; 5 µM)	cell painting activity score (U-2 OS [1]; 10 µM)	cell painting activity score (U-2 OS [1]; 20 µM)	AUC of culture confluence over time (U-2 OS [2]; 5 µM)	AUC of culture confluence over time (U-2 OS [2]; 10 µM)	AUC of culture confluence over time (U-2 OS [2]; 20 µM)	relative cell count (U-2 OS [3]; 0.625 µM)	relative cell count (U-2 OS [3]; 1.25 µM)	relative cell count (U-2 OS [3]; 2.5 µM)	relative cell count (U-2 OS [3]; 5 µM)	relative cell count (U-2 OS [3]; 10 µM)	relative cell count (U-2 OS [3]; 20 µM)	cell painting activity score (U-2 OS [1]; 40 µM)	cell painting activity score (U-2 OS [1]; 80 µM)	AUC of culture confluence over time (U-2 OS [2]; 40 µM)	AUC of culture confluence over time (U-2 OS [2]; 80 µM)	relative cell count (U-2 OS [3]; 40 µM)	relative cell count (U-2 OS [3]; 80 µM)
CC(C)C[C@H](NC(=O)[C@H](CCc1ccccc1)NC(=O)CN1CCOCC1)C(=O)N[C@@H](Cc1ccccc1)C(=O)N[C@@H](CC(C)C)C(=O)[C@@]1(C)CO1	30.8	31.9	32.5	31.5	28.8	29.7	18.4	17.5	16.1	0.149	0.136	0.125	0.141	0.143	0.149	–	–	–	–	–	–
CC(=O)N[C@@H](CCCCNC(=O)CSCCNC(=O)CCNC(=O)[C@H](O)C(C)(C)COP(=O)(O)OP(=O)(O)OC[C@H]1O[C@@H](n2cnc3c(N)ncnc32)[C@H](O)[C@@H]1OP(=O)(O)O)C(N)=O.O=C(O)C(F)(F)F	3.32	5.02	3.77	3.73	4.57	4.45	44.2	44.8	42.4	0.896	0.879	0.923	0.883	0.875	0.903	–	–	–	–	–	–
O=C(O[C@@H]1O[C@@H]2COC(=O)c3cc(O)c(O)c(O)c3-c3c(cc(O)c(O)c3O)C(=O)O[C@H]([C@H]1O)[C@@H]2O)c1cc(O)c(O)c(O)c1	4.19	3.86	4.06	3.55	4.28	4.5	48.7	46.2	43.4	1.02	1.04	1.01	1	0.979	0.978	–	–	–	–	–	–
C[C@@H]1Cc2c(Cl)cc(C(=O)N[C@@H](Cc3ccccc3)C(=O)O)c(O)c2C(=O)O1	3.03	4	4.76	5.78	10.6	16.6	40.8	30.3	17.7	1	0.998	0.979	0.954	0.805	0.503	–	–	–	–	–	–
CCOC(=O)C1=C(C)NC(=S)N[C@@H]1c1cccc(O)c1	4.88	4.81	5.49	5.58	4.56	4.64	48.6	50.3	44.1	0.936	0.94	1.01	0.941	0.954	0.999	–	–	–	–	–	–
CC[C@H]1CN2CCc3cc(OC)c(OC)cc3[C@@H]2C[C@@H]1C[C@H]1NCCc2cc(OC)c(OC)cc21.Cl.Cl.O	18.4	18.9	19.4	20.8	20.8	20.6	15.2	16	16.6	0.51	0.489	0.482	0.462	0.462	0.433	–	–	–	–	–	–
O=c1c2ccccc2[se]n1-c1ccccc1	4.12	5.85	11.4	12.8	12.8	18	49.5	33.9	22.3	0.989	0.995	0.973	0.98	0.521	0.312	–	–	–	–	–	–
CCN(CC)Cc1ccc2cc(COC(=O)Nc3ccc(C(=O)NO)cc3)ccc2c1.Cl	16.1	14.9	15	15.6	16	16.9	16.5	20	18.5	0.781	0.654	0.491	0.424	0.403	0.373	–	–	–	–	–	–
CCCCc1c(-c2ccc(OC)cc2)[nH]c2nccnc12	4.99	3.58	6.25	6.12	8.25	8.09	53.2	47.6	52.7	1.01	0.952	0.968	0.949	0.927	0.624	–	–	–	–	–	–
O=c1c(O)c(-c2ccc(O)c(O)c2)oc2cc(O)cc(O)c12	4.42	3.56	5.15	6.18	8.67	12.4	46.5	53.6	50.6	0.954	0.982	0.939	0.962	0.892	0.814	–	–	–	–	–	–
CC(C)(C)C(=O)OCOc1cccc2ccccc12	4.69	4.3	6.34	5.83	8.37	7.3	45.5	44.2	46.3	1.01	0.983	0.997	0.97	0.974	1.01	–	–	–	–	–	–
O=C(OC[C@H]1O[C@@H](OC(=O)c2cc(O)c(O)c(OC(=O)c3cc(O)c(O)c(O)c3)c2)[C@H](OC(=O)c2cc(O)c(O)c(OC(=O)c3cc(O)c(O)c(O)c3)c2)[C@@H](OC(=O)c2cc(O)c(O)c(OC(=O)c3cc(O)c(O)c(O)c3)c2)[C@@H]1OC(=O)c1cc(O)c(O)c(OC(=O)c2cc(O)c(O)c(O)c2)c1)c1cc(O)c(O)c(OC(=O)c2cc(O)c(O)c(O)c2)c1	4.17	4.59	6.15	5.91	6.39	8.09	48.2	48.5	27.9	1.02	1.02	1.02	0.945	0.945	0.697	–	–	–	–	–	–
Cc1nc(Nc2ncc(C(=O)Nc3c(C)cccc3Cl)s2)cc(N2CCN(CCO)CC2)n1	11.4	12.6	12.3	12.2	13.1	12.8	32.5	29	22.6	0.973	0.883	0.89	0.894	0.806	0.839	–	–	–	–	–	–
ClC1=CC=C(C2=CSC(N/N=C3CCCC/3)=N2)C=C1	3.41	3.02	4.44	4.27	4.6	7.83	–	–	–	1.01	1.04	0.973	1	0.97	0.882	10	11	39.7	41.8	0.758	0.766
C/C(=C\c1csc(C)n1)[C@@H]1C[C@@H]2O[C@]2(C)CCC[C@H](C)[C@H](O)[C@@H](C)C(=O)C(C)(C)[C@@H](O)CC(=O)O1	21.1	20.7	22.7	22.5	23.6	23.9	21.8	21.4	21.2	0.22	0.223	0.284	0.468	0.553	0.521	–	–	–	–	–	–
CCC(=O)CCCCC[C@@H]1NC(=O)[C@H]2CCCCN2C(=O)[C@H]([C@@H](C)CC)NC(=O)[C@H](Cc2cn(OC)c3ccccc23)NC1=O	16.3	16	16.4	16	13.2	13.1	22.3	21.7	19.6	0.946	0.821	0.617	0.59	0.617	0.553	–	–	–	–	–	–
C=C1[C@@H](C)[C@H]2[C@H](Cc3ccccc3)NC(=O)[C@]23[C@H](OC(C)=O)/C=C/[C@@](C)(O)C(=O)[C@@H](C)C/C=C/[C@H]3[C@@H]1O	14.5	15.6	16.1	17.4	18.8	19.2	24.3	26	27.2	0.575	0.517	0.557	0.623	0.562	0.494	–	–	–	–	–	–
C=C(C)[C@H]1Cc2c(ccc3c2O[C@@H]2COc4cc(OC)c(OC)cc4[C@@H]2C3=O)O1	10.4	11.4	15.6	15.6	15.4	15.4	15	17.9	21.1	0.719	0.643	0.485	0.349	0.311	0.332	–	–	–	–	–	–
COc1cc([C@@H]2c3cc4c(cc3[C@@H](O[C@@H]3O[C@@H]5CO[C@@H](C)O[C@H]5[C@H](O)[C@H]3O)[C@H]3COC(=O)[C@H]23)OCO4)cc(OC)c1O	11.9	14	12.9	14.6	14.4	15.2	26.2	24.8	18.3	0.661	0.635	0.568	0.604	0.551	0.536	–	–	–	–	–	–
Cn1ncnc2c(=O)n(C)c(=O)nc1-2	14.5	14	15.7	30	30.1	29	16.9	16.5	14.2	0.575	0.386	0.0951	0.0345	0.021	0.0323	–	–	–	–	–	–
COC(=O)[C@@]12OC[C@]34[C@H]([C@@H](O)[C@@H]1O)[C@@]1(C)CC(=O)C(O)=C(C)[C@@H]1C[C@H]3OC(=O)[C@H](OC(=O)CC(C)C)[C@@H]24	15.1	15.9	16.9	17.5	18.1	17.9	14.4	12.2	13.9	0.469	0.475	0.461	0.47	0.397	0.365	–	–	–	–	–	–
O=C1O[C@H]2[C@@H]3OC(=O)c4cc(O)c(O)c(O)c4-c4c(O)c(O)c5oc(=O)c6c(c(O)c(O)c7oc(=O)c4c5c76)-c4c(cc(O)c(O)c4O)C(=O)OC[C@H]3OC(O)[C@@H]2OC(=O)c2cc(O)c(O)c(O)c2-c2c1cc(O)c(O)c2O (stereo partly drawn)	5.43	7.35	6.54	7.71	7.7	12.5	47.1	42.3	38.4	1.01	1	1.04	1.02	0.968	0.808	–	–	–	–	–	–
CC(C)(N=NC(C)(C)C(=N)N)C(=N)N.Cl.Cl	5.15	4.98	5.89	7.2	8.42	9.74	49.5	48.3	46.6	1.01	0.966	0.949	1.01	0.975	0.977	–	–	–	–	–	–
CN1CCN(CCOc2cc(OC3CCOCC3)c3c(Nc4c(Cl)ccc5c4OCO5)ncnc3c2)CC1	8.87	8.9	9.68	9.8	10.5	11.3	39.5	33.5	34.5	0.997	0.953	0.993	0.997	0.991	0.933	–	–	–	–	–	–
COc1cc(=O)oc(/C=C/C=C/C=C/C(C)=C/[C@]2(C)O[C@H](C)[C@](C)(O)[C@H]2O)c1C	4.29	4.47	6.44	11.5	12.8	12.1	34.4	30.9	27.2	0.993	0.982	0.972	0.928	0.826	0.758	–	–	–	–	–	–
C#CC[C@H](c1nc2cc(Cl)ccc2c(=O)n1Nc1ccccc1)N(CCCN)C(=O)c1cccc(Cl)c1F	4.72	4.61	4.15	10.3	12.9	26.1	26.8	13.2	10.4	0.999	0.984	0.903	0.401	0.198	0.0211	–	–	–	–	–	–
C[C@@H]1O[C@@H](O[C@H]2[C@H](O[C@H]3CC[C@@]4(C)[C@@H](CC[C@]5(C)[C@@H]4CC=C4[C@@H]6CC(C)(C)CC[C@]6(C(=O)O[C@@H]6O[C@H](CO[C@@H]7O[C@H](CO)[C@@H](O[C@@H]8O[C@@H](C)[C@H](O)[C@@H](O)[C@H]8O)[C@H](O)[C@H]7O)[C@@H](O)[C@H](O)[C@H]6O)CC[C@]45C)[C@]3(C)CO)OC[C@H](O)[C@@H]2O)[C@H](O)[C@H](O)[C@H]1O	3.46	5.62	3.28	3.16	3.23	2.9	45.1	48.4	45.2	0.985	0.966	0.955	1	1.01	1.04	–	–	–	–	–	–
COc1cc(OC)c2ccccc2c1C=C1C(=O)NC(=S)NC1=O	13.6	16.2	16.1	16.1	18	17.8	13.1	12.8	13.6	0.833	0.687	0.472	0.428	0.377	0.379	–	–	–	–	–	–
CN1C(=O)[C@]23CC4=CC=C[C@H](O)[C@H]4N2C(=O)[C@@]1(CO)SS3	17.6	31.2	35.5	29.6	26.9	36.5	7.79	7.52	8.46	0.197	0.0207	0.0068	0.0047	0.00462	0.00499	–	–	–	–	–	–
Nc1nccc2c1ncn2[C@@H]1C=C(CO)[C@@H](O)[C@H]1O	18.6	18.8	26.9	28	26.4	26.2	36.9	32.7	34.3	0.949	0.964	0.944	0.938	0.941	0.94	–	–	–	–	–	–
